Patent US20220133722A1, “PHARMACEUTICAL COMPOSITIONS” (QUE ONCOLOGY PTY LTD, priority 2019, published 2022)
Values joined by “and” are separate entries in the source; they are usually repeats but may differ in a detail not shown here. Identical values can stand only once. Like-named read-outs stand apart in the source and are kept apart here.

Test: Part 1 PK study: single oral 200 mg dose, fed (high-fat meal) versus fasted
Assay type: in vivo, human
Details: for Vd/F: read-out: Vz/F
Procedure: Part 1 involved analysing the PK parameters obtained following single oral administration of 200 mg tablets of a compound of formula (Ia) in free base form to 12 healthy female subjects following either fed (high-fat meal) or fasted conditions.
For Part 1 • Cmax maximum plasma concentration (observed) • Tmax time to reach the maximum plasma concentration (observed) • Clast last observed quantifiable concentration in plasma • Tlast time of last observed quantifiable concentration in plasma • AUC0-last area under the plasma concentration-time curve from time 0 to the time of the last quantifiable concentration • AUCinf area under the plasma concentration-time curve from time 0 to infinite time, calculated as the sum of AUClast and Clast/kel • % AUCexp percent of AUC extrapolated between AUC0-last and AUCinf • kel apparent terminal elimination rate constant • t1/2 elimination half-life associated with the terminal slope (kel) of the semilogarithmic drug concentration-time curve, calculated as 0.693/kel • CL/F apparent total body clearance of a drug from the plasma calculated by: CL/F=Dose/AUCinf • Vz/F apparent volume of distribution at steady state calculated by: V/F=[…]
An initial dose was administered on Day 1 followed by collection of samples for PK analysis for 96 hours. PK blood samples were taken pre-dose and 0.25, 0.5, 1.0, 1.5, 2, 3, 4, 8, 10, 12, 16, 24, 36, 48, 60, 72 and 96 hours post-dose, and urine samples were taken at 0-4, 4-8, 8-12, 12-24 and 24-48 hours. Ten days after the initial dose of study drug (Day 11), a second dose of drug was administered followed by collection of PK samples. Subjects completed the End-of-Study Visit (EOS) on Day 18, 7 days after the last dose of study drug.
Subjects selected for participation checked into the clinical unit and were randomized (on the morning of Day 1) to food state for study treatment; one half received study drug in the fed state first followed by fasted state for the second dose while the other half received study drug in the fasted state first followed by fed state. Prior to dosing on Day 1, all subjects fasted for a minimum of 10 hours overnight. On the morning of Day 1, subjects dosed in the fed state received the study drug within 10 min of completing a high fat breakfast. […] Plasma and urine samples were collected as set out above for the PK analysis. Subjects remained in the clinic for study procedures and blood draws before checking out after completion of study procedures on the morning of Day 4 (i.e., 72 hours post-dose) returning for the final PK blood draw on Day 5 at 96 hr post-dose. After the first single dose of study drug, subjects completed a 10-day washout period, returning to the clinical unit for check-in on Day 10. Subjects fasted overnight, receiving the second dose of study drug in the fed or fasted state on the morning of Day 11. Subjects were discharged from the clinic after the collection of the final 72-hr PK sample returning the next day for the 96 hr blood draw.
For both Parts 1 and 2, samples were processed and analysed as follows. The method extracted Q-122 and the Internal Standard (IS, Q-122 ^13C4) from human plasma using protein precipitation extraction.
The analytes were separated by HPLC on a Phenomenex Synergi Polar-RP column, and the eluates monitored by an API4000 MS/MS detector in positive MRM mode. The extract was then assayed against a calibration curve. The data were acquired and processed by the data acquisition system Analyst® (Sciex) linked directly to the API4000 MS/MS detector and then processed in Watson LIMS™ (Thermo Scientific), where applicable. The method range is from 10.0 to 2500 ng/mL using 50 μL of matrix and has a run time of approximately 3.2 minutes per sample.
Plasma PK parameters for each dosing regimen and dose level were calculated from the concentrations of Q-122 and its major metabolites measured in pre-dose and post-dose plasma samples. […]

[1] = female, human, plasma, po, 200 mg, single oral 200 mg, fasted, mean
[2] = female, human, plasma, po, 200 mg, single oral 200 mg, fasted, median
[3] = female, human, plasma, po, 200 mg, single oral 200 mg, fed (high-fat meal), mean
[4] = female, human, plasma, po, 200 mg, single oral 200 mg, fed (high-fat meal), median
[5] = single dose 200 mg, fed versus fasted
[6] = single oral 200 mg, fasted, individual subjects
[7] = single oral 200 mg, fasted, max
[8] = single oral 200 mg, fasted, mean
[9] = single oral 200 mg, fasted, median
[10] = single oral 200 mg, fasted, min
[11] = single oral 200 mg, fed (high-fat meal), individual subjects
[12] = single oral 200 mg, fed (high-fat meal), max
[13] = single oral 200 mg, fed (high-fat meal), mean
[14] = single oral 200 mg, fed (high-fat meal), median
[15] = single oral 200 mg, fed (high-fat meal), min
[16] = single oral dose 200 mg, healthy subjects

- bioavailability with a fatty meal (200 mg, with fatty meal versus fasted): increase in bioavailability
- Tmax (female, human, plasma, oral, 200 mg, single dose 200 mg, fasted, subject 101009 omitted, read-out: Tmax (range over subjects)): 0.5 to 2 h
- Tmax (female, human, plasma, oral, 200 mg, single dose 200 mg, fasted, read-out: Tmax (range over subjects)): 0.5 to 8 h
- Tmax (female, human, plasma, oral, 200 mg, single dose 200 mg, fed, read-out: Tmax (range over subjects)): 0.5 to 10 h
- AUC(0-inf) [1]: 7.38 µg·h/mL
- AUC(0-t) [1]: 6.4 µg·h/mL
- half-life [1]: 21.4 h
- Cmax (female, human, plasma, po, 200 mg, single oral 200 mg, fasted, mean, read-out: Cmax): 0.62 µg/mL
- Tmax (female, human, plasma, po, 200 mg, single oral 200 mg, fasted, mean, read-out: Tmax): 1.75 h
- Vd/F [1]: 874 L
- AUC(0-inf) [2]: 7.39 µg·h/mL
- AUC(0-t) [2]: 6.33 µg·h/mL
- half-life [2]: 23 h
- Cmax (female, human, plasma, po, 200 mg, single oral 200 mg, fasted, median, read-out: Cmax): 0.613 µg/mL
- Tmax (female, human, plasma, po, 200 mg, single oral 200 mg, fasted, median, read-out: Tmax): 1.25 h
- Vd/F [2]: 798 L
- AUC(0-t) [3]: 10.2 µg·h/mL
- half-life [3]: 12.3 h
- Cmax (female, human, plasma, po, 200 mg, single oral 200 mg, fed (high-fat meal), mean, read-out: Cmax): 0.987 µg/mL
- Tmax (female, human, plasma, po, 200 mg, single oral 200 mg, fed (high-fat meal), mean, read-out: Tmax): 6.23 h
- Vd/F [3]: 404 L
- AUC(0-inf) [4]: 11.8 µg·h/mL
- AUC(0-t) [4]: 11.3 µg·h/mL
- half-life [4]: 8.98 h
- Cmax (female, human, plasma, po, 200 mg, single oral 200 mg, fed (high-fat meal), median, read-out: Cmax): 0.929 µg/mL
- Tmax (female, human, plasma, po, 200 mg, single oral 200 mg, fed (high-fat meal), median, read-out: Tmax): 8 h
- Vd/F [4]: 233 L
- increase in mean AUC after food [5]: 1.6 fold
- increase in mean Cmax after food [5]: 1.6 fold
- Tmax [6]: 1.00 h and 1.50 h and 0.50 h
- % AUCexp [7]: 30.9%
- AUC0-last [7]: 9.2583 µg·h/mL
- AUCinf [7]: 10.3171 µg·h/mL
- Cl/F [7]: 48.87 L/h
- Clast [7]: 39.70 ng/mL
- Cmax [7]: 1.05 µg/mL
- Tlast [7]: 96.00 h
- kel [7]: 0.059 h⁻¹
- t1/2 [7]: 32.68 h
- % AUCexp [8]: 10.23%
- Cl/F [8]: 29.137 L/h
- Clast [8]: 20.375 ng/mL
- Tlast [8]: 67.000 h
- kel [8]: 0.0361 h⁻¹
- % AUCexp [9]: 9.07%
- Cl/F [9]: 27.12 L/h
- Clast [9]: 17.00 ng/mL
- Tlast [9]: 60.00 h
- kel [9]: 0.0302 h⁻¹
- % AUCexp [10]: 2.7%
- AUC0-last [10]: 3.6316 µg·h/mL
- AUCinf [10]: 4.0924 µg·h/mL
- Cl/F [10]: 19.39 L/h
- Clast [10]: 11.40 ng/mL
- Cmax [10]: 0.103 µg/mL
- Tlast [10]: 24.00 h
- Tmax [10]: 0.50 h
- kel [10]: 0.021 h⁻¹
- t1/2 [10]: 11.79 h
- Tmax [11]: 0.50 h and 10.00 h
- % AUCexp [12]: 7.5%
- AUC0-last [12]: 14.2549 µg·h/mL
- AUCinf [12]: 14.3896 µg·h/mL
- Cl/F [12]: 45.22 L/h
- Clast [12]: 34.20 ng/mL
- Cmax [12]: 1.52 µg/mL
- Tlast [12]: 96.00 h
- Tmax [12]: 10.00 h
- kel [12]: 0.131 h⁻¹
- t1/2 [12]: 29.71 h
- % AUCexp [13]: 2.70%
- Cl/F [13]: 21.266 L/h
- Clast [13]: 16.045 ng/mL
- Tlast [13]: 52.364 h
- kel [13]: 0.0775 h⁻¹
- % AUCexp [14]: 1.64%
- Cl/F [14]: 17.00 L/h
- Clast [14]: 14.70 ng/mL
- Tlast [14]: 48.00 h
- kel [14]: 0.0774 h⁻¹
- % AUCexp [15]: 0.8%
- AUC0-last [15]: 4.0889 µg·h/mL
- AUCinf [15]: 4.4223 µg·h/mL
- Cl/F [15]: 13.90 L/h
- Clast [15]: 10.90 ng/mL
- Cmax [15]: 0.267 µg/mL
- Tlast [15]: 24.00 h
- Tmax [15]: 0.50 h
- kel [15]: 0.023 h⁻¹
- t1/2 [15]: 5.30 h
- increase of mean AUC0-inf by a high-fat meal compared to the fasted state [16]: ~45%
- increase of mean Cmax by a high-fat meal compared to the fasted state [16]: about 60%
SMILES: c1cnc(NCc2ccc(CNc3ncccn3)cc2)nc1 [Q-122]
- change of Cmax and AUC0-last following food (single dose 200 mg, fed versus fasted, per subject): approximately doubled in 6 out of 11 subjects
- % AUCexp [6]: 4.3% and 10.3% and 9.1% (2×) and 2.7% and 13.4% and 12.6% and 11.3% and 30.9% and 5.9% and 3.1%
- AUC0-last [6]: 5.8811 µg·h/mL and 9.2583 µg·h/mL and 7.702 µg·h/mL and 8.3757 µg·h/mL and 4.9249 µg·h/mL and 5.4108 µg·h/mL and 6.7749 µg·h/mL and 3.6316 µg·h/mL and 5.1503 µg·h/mL and 9.1544 µg·h/mL and 6.8127 µg·h/mL and 3.7042 µg·h/mL
- AUCinf [6]: 6.1448 µg·h/mL and 10.3171 µg·h/mL and 8.4705 µg·h/mL and 8.6087 µg·h/mL and 5.4154 µg·h/mL and 6.2502 µg·h/mL and 7.756 µg·h/mL and 4.0924 µg·h/mL and 9.7261 µg·h/mL and 7.0311 µg·h/mL
- Cl/F [6]: 32.55 L/h and 19.39 L/h and 23.61 L/h and 23.23 L/h and 36.93 L/h and 32.00 L/h and 25.79 L/h and 48.87 L/h and 20.56 L/h and 28.45 L/h
- Clast [6]: 15.50 ng/mL and 26.40 ng/mL and 16.30 ng/mL (2×) and 11.70 ng/mL and 14.20 ng/mL and 22.40 ng/mL and 30.90 ng/mL and 17.70 ng/mL and 39.70 ng/mL and 11.40 ng/mL and 22.00 ng/mL
- Cmax [6]: 0.611 µg/mL and 0.801 µg/mL and 0.676 µg/mL and 1.01 µg/mL and 0.103 µg/mL and 0.516 µg/mL and 0.668 µg/mL and 0.403 µg/mL and 0.559 µg/mL and 1.05 µg/mL and 0.615 µg/mL and 0.422 µg/mL
- Tlast [6]: 48.00 h and 96.00 h (3×) and 60.00 h (5×) and 72.00 h (2×) and 24.00 h
- kel [6]: 0.059 1/h and 0.025 1/h and 0.021 1/h and 0.050 1/h and 0.029 1/h (2×) and 0.027 1/h and 0.031 1/h and 0.038 1/h and 0.052 1/h
- t1/2 [6]: 11.79 h and 27.80 h and 32.68 h and 13.80 h and 23.94 h and 25.98 h and 22.01 h and 18.04 h and 24.31 h and 13.28 h
- % AUCexp [11]: 0.8% and 4.7% and 7.5% and 2.0% and 1.3% and 5.9% and 1.6% (2×) and 1.7% and 0.9% and 1.5%
- AUC0-last [11]: 11.0872 µg·h/mL and 12.782 µg·h/mL and 4.0889 µg·h/mL and 8.4989 µg·h/mL and 12.0439 µg·h/mL and 7.7138 µg·h/mL and 11.8215 µg·h/mL and 12.5516 µg·h/mL and 14.2549 µg·h/mL and 6.5053 µg·h/mL
- AUCinf [11]: 11.1714 µg·h/mL and 13.4171 µg·h/mL and 4.4223 µg·h/mL and 12.1979 µg·h/mL and 8.2013 µg·h/mL and 11.516 µg·h/mL and 12.0301 µg·h/mL and 12.7603 µg·h/mL and 14.3896 µg·h/mL and 6.6062 µg·h/mL
- Cl/F [11]: 17.90 L/h and 14.91 L/h and 45.22 L/h and 16.40 L/h and 24.39 L/h and 17.37 L/h and 16.62 L/h and 15.67 L/h and 13.90 L/h and 30.27 L/h
- Clast [11]: 11.00 ng/mL and 14.70 ng/mL and 11.20 ng/mL and 34.20 ng/mL and 15.10 ng/mL and 16.70 ng/mL and 21.50 ng/mL and 15.40 ng/mL and 13.60 ng/mL and 10.90 ng/mL and 12.20 ng/mL
- Cmax [11]: 1.52 µg/mL and 1.18 µg/mL and 0.267 µg/mL and 0.797 µg/mL and 0.603 µg/mL and 1.4 µg/mL and 0.914 µg/mL and 1.24 µg/mL and 1.23 µg/mL and 0.779 µg/mL
- Tlast [11]: 36.00 h (3×) and 96.00 h (2×) and 24.00 h and 48.00 h (4×) and 60.00 h
- kel [11]: 0.131 1/h and 0.023 1/h and 0.034 1/h (2×) and 0.098 1/h and 0.114 1/h and 0.074 1/h and 0.065 1/h and 0.081 1/h and 0.121 1/h
- t1/2 [11]: 5.30 h and 29.71 h and 20.63 h and 7.07 h and 20.23 h and 6.08 h and 9.39 h and 10.63 h and 8.57 h and 5.73 h
